Laboratory results as given in article PMC2226154 (The Journal of General Physiology, 1974).
Like-named read-outs stand apart in the source and are kept apart here.

Experiments:
[1] = target: T1, neutral amino acid transport system in rabbit ileum (Oryctolagus cuniculus, UniProt B4XTG9); experiment: Inhibition of L-methionine-14C influx across the brush border membrane; details: for fold decrease in apparent affinity: compared to the corresponding parent compound
[2] = target: T1, neutral amino acid transport system in rabbit ileum; details: Hajjar and Curran, phenylalanine analogs; cited from earlier work
[3] = target: T1, neutral amino acid transport system in rabbit ileum; details: direct measurement of influx; cited from earlier work
[4] = measured by Church and Hansch, unpublished; cited from earlier work

COC(=O)CC[C@H](N)C(=O)O [Glutamic acid Y-methyl ester]
fold higher affinity than glutamic acid [1]: 10 fold

O=C(O)C(O)Cc1ccccc1 (stereo not drawn) [phenyllactic acid]
Apparent affinity [2]: 0.8 M⁻¹

O[C@@H](CS)[C@@H](O)CS (racemic) [Dithiothreitol]
effect on methionine influx ([1]; 30 mM, separate control experiments): minimal effect

CC(C)(C)C(N)C(=O)O (stereo not drawn) [tertiary leucine]
fold decrease in apparent affinity [1]: ~10 fold

C[C@H](N)C(=O)O [Alanine]
Apparent affinity [3]: 14 M⁻¹ | log P (octanol/water partition coefficient) [4]: -2.94

CN[C@@H](Cc1ccccc1)C(=O)O [N-methyl phenylalanine]
Apparent affinity [2]: very low apparent affinity

CC(C)C[C@H](N)C(=O)O [Leucine]
Apparent affinity [3]: 32 M⁻¹

N[C@@H](Cc1ccccc1)C(=O)O [Phenylalanine]
Apparent affinity [2]: 56 M⁻¹

CCC(O)C(N)C(=O)O (stereo not drawn) [a-Amino-b-hydroxy valeric acid, a-amino-b-hydroxyvaleric acid]
Ki ([1]; read-out: KI observed, Table V, [Na] 35): 5 mM

O=C(O)CCc1ccccc1 [phenylpropionic acid]
Apparent affinity [2]: 1.2 M⁻¹

CSCC[C@@H](N)C(=O)O [D-methionine]
fold decrease in apparent affinity [1]: approximately 50 fold

C=CC[C@H](N)C(=O)O [Allylglycine]
affinity lower than that of norvaline [1]: approximately 30%

NCC(=O)O [Glycine]
Apparent affinity [3]: 8 M⁻¹

CCOC(=O)CCC(N)C(=O)O (stereo not drawn) [Glutamic acid 7-ethyl ester]
fold higher affinity than glutamic acid [1]: 10 fold

CCSCC[C@H](N)C(=O)O [Ethionine]
observed ratio of KI ([1]; 0.5 mM methionine (reference)): 1.00 | observed ratio of KI ([1]; 2 mM methionine relative to 0.5 mM): 0.98 | observed ratio of KI ([1]; 3 mM methionine relative to 0.5 mM): 1.08
